The values that follow come from publication PMC5711939, “The rumen microbiome: an underexplored resource for novel antimicrobial discovery” (NPJ Biofilms and Microbiomes, 2017).

Data set [1] has as its system E. coli K12. Nature of the data set: MIC, broth microdilution. In kind it is cell-based, Escherichia coli. The following applies: strain K12, cation adjusted MHB, 18–24 h. On the procedure:
(§1) Peptides dissolved in sterile distilled water and comparator antibiotics dissolved in the appropriate solvents[38] were added to sterile U-bottom polypropylene 96-well microplates at desired concentrations.
In general terms: Dilution methods test growth across graded concentrations, often in twofold steps.

Data set [2] has as its system S. aureus MRSA ATCC 33591. Nature of the data set: Neutropenic mouse MRSA thigh infection model. The format is in vivo, Staphylococcus aureus. The following applies: neutropenic male ICR mice; 10 mg/kg IV administered twice; significant (P < 0.001). On the procedure:
In the thigh infection model, using neutropenic mice,[25] groups of five male ICR mice weighing 22 ± 2 g were inoculated intramuscularly (IM) with S. aureus MRSA, ATCC 33591 (1.57 × 10^5 CFU/mouse (0.1 ml/thigh)) in the right thigh. Lynronne-1, Lynronne-2 and Lynronne-3 at 10 mg/kg were intravenously (IV) administered once 2 h post infection or twice 2 and 8 h post-infection. The reference substance, vancomycin, was also intravenously injected 2 and 8 h post-infection at 10 and 30 mg/kg. Test animals were sacrificed 26 h after inoculation and the infected thighs were excised and the bacterial burden (CFU/gram) was determined.

Data set [3] relates to Ent. faecalis JH2-2. Nature of the data set: microbe, parasite or virus in culture. On the procedure:
as §1

Data set [4] concerns List. monocytogenes NCTC 11994. Nature of the data set: microbe, parasite or virus in culture. On the procedure: as §1
The test system of data set [5] is Sal. typhimurium SL1344. Nature of the data set: microbe, parasite or virus in culture. On the procedure: as §1
Data set [6] concerns S. aureus. Nature of the data set: microbe, parasite or virus in culture. On the procedure: as §1
Data set [7] concerns C. coli. On the procedure:
as §1

For data set [8], the system named is C. jejuni. Nature of the data set: microbe, parasite or virus in culture. On the procedure:
as §1

Data set [9] has as its system E. coli K12. Nature of the data set: Time kill kinetics. The format is cell-based, Escherichia coli. The following applies: at 10 min. On the procedure: Assessment of the bactericidal activity of peptides and comparator antibiotics was performed as previously described[39] using exponential-phase cultures of pathogens grown in MHB ([…]). Peptides were added at concentrations 3 times their MIC values. Experiments were performed in quadruplicates, and CFU/ml was calculated at different time points after over overnight incubation.

Data set [10] concerns P. aeruginosa (CF). Nature of the data set: microbe, parasite or virus in culture. The conditions noted are these: Pseudomonas aeruginosa, cation adjusted MHB, 18–24 h. On the procedure: as §1
The subject of data set [11] is K. pneumoniae. Nature of the data set: microbe, parasite or virus in culture. On the procedure: as §1
Data set [12] has as its system EMRSA-15. Nature of the data set: SPOT peptide library screen (resazurin fluorescence). The following applies: 75% reduction of fluorescence vs untreated controls; active IC75≤0.25, semi-active 0.25<IC75≤0.50, inactive IC75>0.5. The format is cell-based, Staphylococcus aureus. Also on record: unit not given here. The source says:
(§2) The peptides in the created peptide library were synthesized based on the SPOT technique and pure peptides (≥95% purity) were synthesized on resin using solid phase Fmoc peptide chemistry.[16] The 135 peptides in the peptide library were screened for antimicrobial activity using both luminescent (Pseudomonas aeruginosa strain H1001)[34] and non-luminescent (epidemic methicillin resistant S. aureus EMRSA-15, Sal. typhimurium and E. coli K12) bacterial strains. Activity against non-luminescent bacteria strains was assessed by fluorescence readings (excitation/emission spectra of 560/590 nm) after the addition of resazurin dye (100 µm final concentration). The results from the screen were analysed using the MATLAB extension Gait-CAD as previously described.[35] Concentration values with a 75% reduction of luminescence or fluorescence (IC75) in relation to untreated controls were computed.
(In general: The colour change of resazurin is a common sign of viable cells or microbes.)

The subject of data set [13] is Sal. typhimurium. The description is as above. The format is cell-based, Salmonella enterica serovar Typhimurium. Set-up: unit not given here. The following applies: 75% reduction of fluorescence vs untreated controls; active IC75≤0.25, semi-active 0.25<IC75≤0.50, inactive IC75>0.5.
Text: as §2

Data set [14] has as its system P. aeruginosa H1001. Nature of the data set: SPOT peptide library screen (luminescence). The conditions noted are these: 75% reduction of luminescence vs untreated controls; active IC75≤0.25, semi-active 0.25<IC75≤0.50, inactive IC75>0.5. Set-up: unit not given here. The format is cell-based, Pseudomonas aeruginosa.
Text: as §2

Data set [15] relates to E. coli K12. Nature of the data set: SPOT peptide library screen (resazurin fluorescence). The format is cell-based, Escherichia coli. Set-up: unit not given here. The conditions noted are these: 75% reduction of fluorescence vs untreated controls; active IC75≤0.25, semi-active 0.25<IC75≤0.50, inactive IC75>0.5.
Text: as §2

The subject of data set [16] is HUVEC and HepG2 cells. The following applies: HUVEC and HepG2 cells (cell line not given). On the procedure:
Cytotoxic activity of the identified peptides was determined using HUVEC and HEPG2 cells as described previously.[41],[42] […] Significant responses were defined when observed cell growth was ≤50% and tube length was ≤70% using the proliferation and tube formation assays respectively. Permeabilization of eukaryotic membrane by Lynronne-1, Lynronne-2 and Lynronne-3 was also investigated using HepG2 cells as described previously.[43]

[17] abbreviates: strain RN4220, Sensitive, cation adjusted MHB, 18–24 h.

≈ marks a conversion by molar mass, not a printed value. Like-named read-outs stand apart in the source and are kept apart here. Ends that are not written are not given here.

`CN[C@H](CC(C)C)C(=O)N[C@H]1C(=O)N[C@@H](CC(N)=O)C(=O)N[C@H]2C(=O)N[C@H]3C(=O)N[C@H](C(=O)N[C@H](C(=O)O)c4cc(O)cc(O)c4-c4cc3ccc4O)[C@H](O)c3ccc(c(Cl)c3)Oc3cc2cc(c3O[C@@H]2O[C@H](CO)[C@@H](O)[C@H](O)[C@H]2O[C@H]2C[C@](C)(N)[C@H](O)[C@H](C)O2)Oc2ccc(cc2Cl)[C@H]1O` [Van, Vancomycin, reference compound]: the MIC in data set [1] (Escherichia coli, read-out: MIC) is 128 µg/mL (≈ 88.3 µM); in data set [3] (Enterococcus faecalis, JH22), 64 µg/mL (≈ 44.2 µM); in data set [4] (Listeria monocytogenes, NCTC11994) it was 64 µg/mL (≈ 44.2 µM); in data set [5] (Salmonella enterica, TYPHIMURIUM) it was 256 µg/mL (≈ 177 µM); in [6] (Staphylococcus aureus) it was 1 µg/mL (≈ 0.69 µM); in data set [6] (Staphylococcus aureus, ATCC33591 / MRSA), 2 µg/mL (≈ 1.38 µM). Further, the MIC in [6] (Staphylococcus aureus, BAA1717 / MRSA / USA300) turned out to be 2 µg/mL (≈ 1.38 µM); in data set [6] (Staphylococcus aureus, MRSA), 2 µg/mL (≈ 1.38 µM). In addition, the “Reduction in colony counts” value in data set [2] is given as less than 2 log.
Turning to QVRWWGRYWRRKWATCR-NH2 [P12], the MIC in data set [7] is greater than 128 µg/mL; in [8], greater than 128 µg/mL; in [3], 256 µg/mL; in data set [4] (NCTC 11994), 128 µg/mL; in data set [5] it was 256 µg/mL.
For VLHTGYRKFLHRSKRFFHLR-NH2 [P4], the MIC is 64 µg/mL in data set [1]; greater than 128 µg/mL in data set [7]; greater than 128 µg/mL in [8]; 64 µg/mL in [3]; 64 µg/mL in data set [4] (NCTC 11994); 32 µg/mL in [5].
For the compound “SIKILKIYFIQGKRHWSF-NH2 (C-terminus assumed) [P11]”, the MIC is greater than 128 µg/mL in data set [7]; greater than 128 µg/mL in data set [8]; 256 µg/mL in data set [3]; 256 µg/mL in [4] (NCTC 11994); 512 µg/mL in data set [5].
Regarding AWRWKAFRNCWRVRSSSL-NH2 [P8], the MIC in data set [1] was 64 µg/mL; in data set [7], greater than 128 µg/mL; in [8] it was greater than 128 µg/mL; in data set [3], 64 µg/mL; in data set [4] (NCTC 11994), 64 µg/mL; in [5], 32 µg/mL. Also, in [6] (setting [17]), the MIC came out at 64 µg/mL.
On to Polymyxin B, for which the “Bactericidal activity (reduction in viable count)” value in [9] is on record as greater than 4 log10 CFU/ml.
With TMSLRFWRWKVR-NH2 [P5], the MIC came to 64 µg/mL in data set [1]; 128 µg/mL in data set [7]; 128 µg/mL in [8]; 64 µg/mL in [3]; 64 µg/mL in data set [4] (NCTC 11994); 64 µg/mL in [5]. Also, the MIC in [6] (setting [17]) was found to be 64 µg/mL.
In the case of `C[C@H]1COc2c(N3CCN(C)CC3)c(F)cc3c(=O)c(C(=O)O)cn1c23` [Lev, Levofloxacin, reference compound], the MIC in data set [10] (strain AMT0060) was 0.06 µg/mL (≈ 0.166 µM); in data set [10] (strain C3719), less than 0.03 µg/mL; in data set [10] (strain LESB58), 0.06 µg/mL (≈ 0.166 µM).
Turning to KFVRLKIYCRDKNKGRGISF-NH2 [P15s], the MIC came out at 64 µg/mL in data set [1]; 128 µg/mL in [7]; 128 µg/mL in [8]; 128 µg/mL in data set [3]; 128 µg/mL in [4] (NCTC 11994); 128 µg/mL in data set [5].
Take GTAWRWHYRARS-NH2 [P15a]: the MIC is 128 µg/mL in data set [7], greater than 128 µg/mL in [11], 128 µg/mL in data set [8] and greater than 128 µg/mL in [6].
As for TTAPCKCWIGLRRCFK [P18], the “IC75 values indicating activity classes, EMRSA-15” value in [12] is given as 3.77. In addition, the “IC75 values indicating activity classes, Sal. typhimurium” value in data set [13] is recorded as 1.99. Further, in data set [14], the “IC75 values indicating activity classes, P. aeruginosa H1001” value was 1.55. The “IC75 values indicating activity classes, E. coli” value in data set [15] is given as 0.36.
For `CN[C@@H]1C[C@H]2O[C@@](C)([C@@H]1OC)n1c3ccccc3c3c4c(c5c6ccccc6n2c5c31)C(=O)NC4` [Staurosporine, reference compound], the “50% lethal concentration (LC50)” value in data set [16] came out at 0.014 µg/mL.
In turn, `C/C(=C\C(=O)OCCCCCCCCC(=O)O)C[C@@H]1OC[C@H](C[C@@H]2O[C@H]2[C@@H](C)[C@H](C)O)[C@@H](O)[C@H]1O` [Mup, Mupirocin, reference compound] came in with an MIC in data set [6] (Staphylococcus aureus, BAA1717|MRSA|USA300, strain USA300 BAA-1717, MRSA, cation adjusted MHB, 18–24 h) of 0.12 µg/mL (≈ 0.24 µM).
Take RSITRPVLVRRRWRVRPVF-NH2 [P10]: the MIC in [1] is 256 µg/mL; in data set [7], greater than 128 µg/mL; in [11], greater than 128 µg/mL; in data set [8], greater than 128 µg/mL; in data set [3], 512 µg/mL; in [4] (NCTC 11994), 512 µg/mL. The MIC is 64 µg/mL in data set [5], greater than 128 µg/mL in data set [6] and 256 µg/mL in [6] (setting [17]).
